{
  "source": "patent US9890166B2",
  "about": "“Imidazopyrrolidine derivatives and their use in the treatment of disease” (NOVARTIS AG, priority 2013, dated 2018);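 as to MV-4-11 TGI: cellular ATP luminescence after 4 days, 3-fold dilution series from 10 µM top dose, vehicle (0.1% DMSO) set to 100%, cell-free medium set to −100%, day 0 corrected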;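 as to THP-1 TGI: viability read as cellular ATP luminescence after 4 days, 3-fold dilution series from 10 µM, DMSO vehicle-treated cells taken as 100%, cell-free medium wells as −100%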",
  "key": {"[1]": {"biological_target": "CREBBP bromodomain (His-CREBBP(1081-1197)) (Homo sapiens (Human), UniProt Q92793)", "sequence (Q92793 1081-1197)": "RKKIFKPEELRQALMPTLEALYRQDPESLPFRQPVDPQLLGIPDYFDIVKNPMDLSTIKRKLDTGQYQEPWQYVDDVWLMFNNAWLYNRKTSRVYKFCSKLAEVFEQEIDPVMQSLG", "assay": "AlphaScreen in-vitro binding assay for CREBBP", "conditions": "single determination or n ≧ 2 independent determinations, read-out: Biochemical IC50 CREBBP", "procedure,_shortened": "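Detection used nickel-chelate acceptor plus streptavidin donor AlphaScreen beads, 1 h room temperature. Percent inhibition fitted by non-linear regression to IC50.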"}, "K-562 cells": {"tested_on": "K-562 cells", "assay": "Cell growth inhibition assay (CellTiter-Glo), K-562;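 as to all read-outs here: cellular ATP measured by luminescence after 4 days of exposure, 3-fold dilution series from 10 µM, DMSO vehicle-treated cells define 100%, cell-free medium wells −100%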", "conditions": "for GI50: Homo sapiens, K562, read-out: K-562 GI50; for K-562 TGI: K-562 cells, total growth inhibition, CellTiter-Glo"}, "BRD4 (His-Brd4(44-477))": {"biological_target": "BRD4 (His-Brd4(44-477)) (Homo sapiens (Human), UniProt O60885)", "assay": "TR-FRET in-vitro binding assay for BRD4", "conditions": "single determination or n ≧ 2 independent determinations, read-out: Biochemical IC50 BRD4", "procedure,_shortened": "(§1)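 In this TR-FRET format, each compound was tested as an 8-point dilution series, single point per concentration, dispensed from 90% DMSO solution. Incubation lasted 35 minutes at 30° C.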"}, "THP-1 cells": {"tested_on": "THP-1 cells", "assay": "Cell growth inhibition assay (CellTiter-Glo), THP-1", "conditions": "for GI50: Homo sapiens, THP-1, read-out: THP-1 GI50; for THP-1 TGI: THP-1 cells, total growth inhibition, CellTiter-Glo"}, "BRD2 (His-Brd2(60-472))": {"biological_target": "BRD2 (His-Brd2(60-472)) (Homo sapiens (Human), UniProt P25440)", "sequence (P25440 60-472)": "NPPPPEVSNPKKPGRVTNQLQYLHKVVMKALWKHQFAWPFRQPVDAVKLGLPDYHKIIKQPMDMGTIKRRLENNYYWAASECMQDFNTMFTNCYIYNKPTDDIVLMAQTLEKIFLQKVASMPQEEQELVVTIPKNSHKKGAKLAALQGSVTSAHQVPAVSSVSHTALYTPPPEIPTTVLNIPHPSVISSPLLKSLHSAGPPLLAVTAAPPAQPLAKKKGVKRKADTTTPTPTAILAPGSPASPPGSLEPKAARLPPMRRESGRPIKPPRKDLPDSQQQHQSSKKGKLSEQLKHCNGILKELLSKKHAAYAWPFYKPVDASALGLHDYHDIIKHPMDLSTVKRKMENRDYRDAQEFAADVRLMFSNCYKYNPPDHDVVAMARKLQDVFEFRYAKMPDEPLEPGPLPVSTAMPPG", "assay": "TR-FRET in-vitro binding assay for BRD2", "conditions": "single determination or n ≧ 2 independent determinations, read-out: Biochemical IC50 BRD2", "description": "TR-FRET In-Vitro Binding Assays for BRD2, BRD3, and BRD4:\nAll assays were performed in 384 well microtiter plates. Each assay plate contained 8-point serial dilutions for 40 test compounds, plus 16 high- and 16 low controls. Liquid handling and incubation steps were done on an Innovadyne Nanodrop Express equipped with a robotic arm (Thermo CatX, Perkin Elmer/Caliper Twister II) and an incubator (Liconic STX40, Thermo Cytomat 2C450). The assay plates were prepared by addition of 50 nl per well of compound solution in 90% DMSO HummingBird nanodispenser (Zinsser Analytic). […] Reactions were incubated at 30° C. for 35 minutes. […] After 35 minutes incubation at 30° C., plates were measured in a Perkin Elmer EnVision multilabel reader.\nPreparation of Compound Dilutions\nTest compounds were dissolved in DMSO (10 mM) and transferred into 1.4 mL flat bottom or V-shaped Matrix tubes carrying a unique 2D matrix. The stock solutions were stored at […] if not used immediately. For the test procedure the vials were defrosted and identified by a scanner whereby a working sheet was generated that guided the subsequent working steps.\nCompound dilutions were made in 96 well plates. This format enabled the assay of maximally 40 individual test compounds at 8 concentrations (single points) including 4 reference compounds, if desired (known BET inhibitors from the prior art, for this and other assays of the type disclosed herein). The dilution protocol included the production of “pre-dilution plates”, “master plates” and “assay plates”.\nPre-Dilution Plates: 96 polypropylene well plates were used as pre-dilution plates. A total of 4 pre-dilution plates were prepared including 10 test compounds each on the plate positions A1-A10, one standard compound at A11 and one DMSO control at A12. All dilution steps were done on a HamiltonSTAR robot.\nThese plates were used directly for the assay which was performed in a total volume of 13.55 μL."}, "BRD3 (His-Brd3(20-477))": {"biological_target": "BRD3 (His-Brd3(20-477)) (Homo sapiens (Human), UniProt Q15059)", "sequence (Q15059 20-477)": "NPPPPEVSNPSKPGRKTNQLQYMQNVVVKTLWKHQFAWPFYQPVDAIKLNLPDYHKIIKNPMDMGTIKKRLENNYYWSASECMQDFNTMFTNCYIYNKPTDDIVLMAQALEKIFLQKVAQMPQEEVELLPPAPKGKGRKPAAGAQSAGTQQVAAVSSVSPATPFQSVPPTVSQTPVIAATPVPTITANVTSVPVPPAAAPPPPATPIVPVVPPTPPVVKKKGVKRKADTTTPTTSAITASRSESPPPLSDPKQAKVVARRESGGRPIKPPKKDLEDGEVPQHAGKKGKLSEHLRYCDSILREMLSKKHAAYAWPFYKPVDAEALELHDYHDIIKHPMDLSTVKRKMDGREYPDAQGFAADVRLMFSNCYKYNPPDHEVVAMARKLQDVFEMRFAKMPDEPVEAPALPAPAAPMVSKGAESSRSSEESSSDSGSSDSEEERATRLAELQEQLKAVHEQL", "assay": "TR-FRET in-vitro binding assay for BRD3", "conditions": "single determination or n ≧ 2 independent determinations, read-out: Biochemical IC50 BRD3", "procedure,_shortened": "as §1"}, "MV-4-11 cells": {"tested_on": "MV-4-11 cells", "assay": "Cell growth inhibition assay (CellTiter-Glo), MV-4-11", "conditions": "for GI50: Homo sapiens, MV4-11, read-out: MV-4-11 GI50; for MV-4-11 TGI: MV-4-11 cells, total growth inhibition, CellTiter-Glo"}},
  "data": [
    {"smiles": "Cc1cc(N2C(=O)c3nc(C4CC4)n(C(C)C)c3C2c2ccc(Cl)cc2)cn2c(C(F)F)nnc12", "note": "(stereo not drawn) [Example 145, 6-(4-chlorophenyl)-2-cyclopropyl-5-(3-(difluoromethyl)-8-methyl-[1,2,4]triazolo[4,3-a]pyridin-6-yl)-1-isopropyl-5,6-dihydropyrrolo[3,4-d]imidazol-4(1H)-one]", "values": [
      {"measurement": "IC50", "setting": "[1]", "value": "> 37", "unit": "µM"},
      {"measurement": "GI50", "setting": "K-562 cells", "value": 0.0703, "unit": "µM"},
      {"measurement": "K-562 TGI", "setting": "K-562 cells", "value": ">10", "unit": "µM"},
      {"measurement": "IC50", "setting": "BRD4 (His-Brd4(44-477))", "value": 0.028, "unit": "µM"},
      {"measurement": "GI50", "setting": "THP-1 cells", "value": 0.0222, "unit": "µM"},
      {"measurement": "THP-1 TGI", "setting": "THP-1 cells", "value": 0.0476, "unit": "µM"},
      {"measurement": "IC50", "setting": "BRD2 (His-Brd2(60-472))", "value": 0.054, "unit": "µM"},
      {"measurement": "IC50", "setting": "BRD3 (His-Brd3(20-477))", "value": 0.029, "unit": "µM"},
      {"measurement": "GI50", "setting": "MV-4-11 cells", "value": 0.014, "unit": "µM"},
      {"measurement": "MV-4-11 TGI", "setting": "MV-4-11 cells", "value": 0.02695, "unit": "µM"}
    ]},
    {"smiles": "Cc1cc(N2C(=O)c3nc(C4CCOCC4)n(C(C)C)c3C2c2ccc(Cl)cc2)nn2c(C)nnc12", "note": "(stereo not drawn) [Example 101, 6-(4-chlorophenyl)-5-(3,8-dimethyl-[1,2,4]triazolo[4,3-b]pyridazin-6-yl)-1-isopropyl-2-(tetrahydro-2H-pyran-4-yl)-5,6-dihydropyrrolo[3,4-d]imidazol-4(1H)-one]", "values": [
      {"measurement": "IC50", "setting": "[1]", "value": 19.6, "unit": "µM"},
      {"measurement": "GI50", "setting": "K-562 cells", "value": 0.0155, "unit": "µM"},
      {"measurement": "K-562 TGI", "setting": "K-562 cells", "value": ">10", "unit": "µM"},
      {"measurement": "IC50", "setting": "BRD4 (His-Brd4(44-477))", "value": 0.023, "unit": "µM"},
      {"measurement": "GI50", "setting": "THP-1 cells", "value": 0.00349, "unit": "µM"},
      {"measurement": "THP-1 TGI", "setting": "THP-1 cells", "value": 0.01105, "unit": "µM"},
      {"measurement": "IC50", "setting": "BRD2 (His-Brd2(60-472))", "value": 0.034, "unit": "µM"},
      {"measurement": "IC50", "setting": "BRD3 (His-Brd3(20-477))", "value": 0.024, "unit": "µM"},
      {"measurement": "GI50", "setting": "MV-4-11 cells", "value": 0.00187, "unit": "µM"},
      {"measurement": "MV-4-11 TGI", "setting": "MV-4-11 cells", "value": 0.00411, "unit": "µM"}
    ]},
    {"smiles": "CCCn1c(-c2cncc(C#N)c2)nc2c1C(=O)N(c1cc(C)c(=O)n(C)c1)C2c1ccc(Cl)cc1", "note": "(stereo not drawn) [Example 37, 5-(4-(4-chlorophenyl)-5-(1,5-dimethyl-6-oxo-1,6-dihydropyridin-3-yl)-6-oxo-1-propyl-1,4,5,6-tetrahydropyrrolo[3,4-d]imidazol-2-yl)nicotinonitrile]", "values": [
      {"measurement": "IC50", "setting": "[1]", "value": 4.1, "unit": "µM"},
      {"measurement": "GI50", "setting": "K-562 cells", "value": 0.32, "unit": "µM"},
      {"measurement": "K-562 TGI", "setting": "K-562 cells", "value": ">10", "unit": "µM"},
      {"measurement": "IC50", "setting": "BRD4 (His-Brd4(44-477))", "value": 0.166, "unit": "µM"},
      {"measurement": "GI50", "setting": "THP-1 cells", "value": 0.1, "unit": "µM"},
      {"measurement": "THP-1 TGI", "setting": "THP-1 cells", "value": 0.195, "unit": "µM"},
      {"measurement": "IC50", "setting": "BRD2 (His-Brd2(60-472))", "value": 0.275, "unit": "µM"},
      {"measurement": "IC50", "setting": "BRD3 (His-Brd3(20-477))", "value": 0.165, "unit": "µM"},
      {"measurement": "GI50", "setting": "MV-4-11 cells", "value": 0.0669, "unit": "µM"},
      {"measurement": "MV-4-11 TGI", "setting": "MV-4-11 cells", "value": 0.105, "unit": "µM"}
    ]},
    {"smiles": "Cc1cc(N2C(=O)c3nc(C4=CCCN(C)C4)n(C(C)C)c3C2c2ccc(Cl)cc2)cn2c(CF)nnc12", "note": "(stereo not drawn) [Example 91]", "values": [
      {"measurement": "IC50", "setting": "[1]", "value": 17.5, "unit": "µM"},
      {"measurement": "GI50", "setting": "K-562 cells", "value": 0.353, "unit": "µM"},
      {"measurement": "K-562 TGI", "setting": "K-562 cells", "value": ">10", "unit": "µM"},
      {"measurement": "IC50", "setting": "BRD4 (His-Brd4(44-477))", "value": 0.0345, "unit": "µM"},
      {"measurement": "GI50", "setting": "THP-1 cells", "value": 0.122, "unit": "µM"},
      {"measurement": "THP-1 TGI", "setting": "THP-1 cells", "value": 0.334, "unit": "µM"},
      {"measurement": "IC50", "setting": "BRD2 (His-Brd2(60-472))", "value": 0.095, "unit": "µM"},
      {"measurement": "IC50", "setting": "BRD3 (His-Brd3(20-477))", "value": 0.045, "unit": "µM"},
      {"measurement": "GI50", "setting": "MV-4-11 cells", "value": 0.0274, "unit": "µM"},
      {"measurement": "MV-4-11 TGI", "setting": "MV-4-11 cells", "value": 0.0637, "unit": "µM"}
    ]},
    {"smiles": "COc1ncccc1-c1nc2c([nH]1)C(c1ccc(Cl)cc1)N(c1cc(C)c3nnn(C)c3c1)C2=O", "note": "(stereo not drawn) [Example 133, 6-(4-chlorophenyl)-5-(3,7-dimethyl-3H-benzo[d][1,2,3]triazol-5-yl)-2-(2-methoxypyridin-3-yl)-5,6-dihydropyrrolo[3,4-d]imidazol-4(1H)-one]", "values": [
      {"measurement": "IC50", "setting": "[1]", "value": 5.4, "unit": "µM"},
      {"measurement": "GI50", "setting": "K-562 cells", "value": 0.142, "unit": "µM"},
      {"measurement": "K-562 TGI", "setting": "K-562 cells", "value": ">10", "unit": "µM"},
      {"measurement": "IC50", "setting": "BRD4 (His-Brd4(44-477))", "value": 0.023, "unit": "µM"},
      {"measurement": "GI50", "setting": "THP-1 cells", "value": 0.0656, "unit": "µM"},
      {"measurement": "THP-1 TGI", "setting": "THP-1 cells", "value": 0.1375, "unit": "µM"},
      {"measurement": "IC50", "setting": "BRD2 (His-Brd2(60-472))", "value": 0.035, "unit": "µM"},
      {"measurement": "IC50", "setting": "BRD3 (His-Brd3(20-477))", "value": 0.0195, "unit": "µM"},
      {"measurement": "GI50", "setting": "MV-4-11 cells", "value": 0.0351, "unit": "µM"},
      {"measurement": "MV-4-11 TGI", "setting": "MV-4-11 cells", "value": 0.0608, "unit": "µM"}
    ]},
    {"smiles": "CCN1CC=C(c2nc3c(n2C(C)C)C(c2ccc(Cl)cc2)N(c2cc(C)c4nnc(C)n4c2)C3=O)CC1", "note": "(stereo not drawn) [Example 68, 6-(4-chlorophenyl)-5-(3,8-dimethyl-[1,2,4]triazolo[4,3-a]pyridin-6-yl)-2-(1-ethyl-1,2,3,6-tetrahydropyridin-4-yl)-1-isopropyl-5,6-dihydropyrrolo[3,4-d]imidazol-4(1H)-one]", "values": [
      {"measurement": "IC50", "setting": "[1]", "value": 5, "unit": "µM"},
      {"measurement": "GI50", "setting": "K-562 cells", "value": 1.38, "unit": "µM"},
      {"measurement": "K-562 TGI", "setting": "K-562 cells", "value": ">10", "unit": "µM"},
      {"measurement": "IC50", "setting": "BRD4 (His-Brd4(44-477))", "value": 0.03, "unit": "µM"},
      {"measurement": "GI50", "setting": "THP-1 cells", "value": 0.259, "unit": "µM"},
      {"measurement": "THP-1 TGI", "setting": "THP-1 cells", "value": 0.458, "unit": "µM"},
      {"measurement": "IC50", "setting": "BRD2 (His-Brd2(60-472))", "value": 0.077, "unit": "µM"},
      {"measurement": "IC50", "setting": "BRD3 (His-Brd3(20-477))", "value": 0.0445, "unit": "µM"},
      {"measurement": "GI50", "setting": "MV-4-11 cells", "value": 0.0213, "unit": "µM"},
      {"measurement": "MV-4-11 TGI", "setting": "MV-4-11 cells", "value": 0.0371, "unit": "µM"}
    ]}
  ]
}
